This is an account of results in article PMC10587169, “Tuning aminopolycarboxylate chelators for efficient complexation of trivalent actinides” (Scientific Reports, 2023).

A short description of the assay: Spectrophotometric titration. The assay is classed as binding. From the text:
Changes in the optical absorption characteristics of Nd^3+ were monitored using a Cary 6000i UV/Vis–NIR Spectrometer (Agilent) using 1 cm semimicro quartz cuvettes (Starna) in double-beam mode, where the ^4I9/2 → ^4G5/2, ^2G7/2 transitions[34] were monitored between 560 and 605 nm with a 0.075 nm interval and 1.0 nm spectral bandwidth. Changes in the optical absorption characteristics of ^243Am^3+ and ^248Cm^3+ were monitored using a Flame-S-VIS–NIR-ES spectrometer coupled to a DH-2000-BAL dual-mode light source (Ocean Optics) with a single 1 cm semimicro quartz cuvette (Starna). The light source and spectrometer were optically coupled to the CUV sample (Ocean Optics) holder using 2 m fiberoptics (200 μm) and the parameters for acquisition were 0.369 nm interval and 1000 scans averaged with an integration time/scan 1.08 ms (total acquisition time ~ 1 s). The complexation of Am^3+ with the ligands was monitored in the 495–525 nm spectral region, looking at the ^7F0′ → ^5L6′ transition[23],[35]. For Cm^3+, ligand complexation was monitored in the 365–410 nm spectral region, looking at the ^8S7/2 → ^2Ji (i = {15}, {13,9}, {11,17}) manifold transitions[24],[25],[36]. Changes in aqueous p[H^+] were monitored throughout each titration step using a Gran-calibrated Orion Ross Semi-micro glass electrode. Baseline correction was applied to all datasets and was typically a simple linear subtraction. However, in the case of the ^248Cm/H4pypa-peg spectra, the tail end of the ligand absorption overlapped the hypersensitive Cm peaks. In this case the background correction was applied using a 5th-order empirical polynomial. Finally, the spectroscopic data was analyzed using the HypSpec software package[33],[37]. Full details of the titrand and titrant solutions for each titration are included in the Supplemental Information.
The coordination of Nd^3+ by H4octapa and H4pypa-peg was also studied using spectroscopic methods. Figures 5A, B show the collected spectrophotometric signatures for H4octapa and H4pypa-peg, respectively.4 M^3++L^4-⇆ML^-β101=ML^-/[M^3+]L^4- 5 M^3++H^++L^4-⇆MHLaqβ111=MHLaq/[M^3+L^4-H^+]
Optical absorption features of ^4I9/2 → ^4G5/2, ^2G7/2 transitions for Nd^3+ are perturbed due to the introduction of increasing quantities of complexants, resulting in characteristic red-shifted changes. In Fig. 5A a broad absorption band with λmax = 577 nm is distinctly different to the optical absorption of free Nd^3+ metal in Fig. 5B. The differences can be attributed to the nitrate complexation of Nd^3+ as the spectrophotometric titration with H4octapa was performed in 2.0 M (Na^+/H^+)NO3. […] The HypSpec interpretation of the Nd/pypa-peg titration points to the presence of three absorbing species: Nd^3+, NdHL(aq), and NdL^−. The conditional stability constants obtained spectroscopically are listed in Table 3, showing good agreement with the stability constants determined using potentiometry. The complex stability constants for structurally similar APC ligands found in the literature are also presented (H4pypa[18] and H4py4pa[57]).
2. Spectrophotometric titration parameters
Nd3+: The titrand solution consisting of 1.980 mL of 7.57 mM Nd(ClO4)3 at p[H+] = 1.61 was blended with 1.965 mL of titrant solution containing 7.62 mM Nd3+, 18.57 mM H4octapa, […]
Am3+: The titrand solution consisting of 0.842 mL of 0.810 mM Am(ClO4)3 at p[H+] =1.66 was blended with 0.811 mL of titrant solution containing 0.815 mM Am3+, 8.95 mM H4octapa, at p[H+] ≈ 5.0 – 6.0.
Nd3+: The titrand solution consisting of 0.801 mL of 9.82 mM Nd(ClO4)3 at p[H+] = 1.61 was blended with 1.176 mL of titrant solution containing 9.91 mM Nd3+ and 24.58 mM H4pypa-peg in with p[H+] ≈ 3.0 – 4.0.
Am3+: The titrand solution consisting of 0.806 mL of 0.791 mM Am(ClO4)3 at p[H+] = 1.41 was blended with 0.787 mL of titrant solution containing 0.801 mM Am3+ and 15.09 mM H4pypa-peg at p[H+] ≈ 5 – 6.
Cm3+: The titrand solution consist ing of 0.809 mL of 1.00 mM Cm(ClO4)3 at p[H+] = 1.34 was […]

Setting [1] is: spectrophotometrically determined in 2.0 M (Na+/H+)ClO4, 20 °C.

Turning to `O=C(O)CN(CCN(CCN(CC(=O)O)CC(=O)O)CC(=O)O)CCN(CC(=O)O)CC(=O)O` [H6ttha, triethylenetetraamine-N,N,N',N'',N''',N'''-hexaacetic acid], under setting [1], the “logβ101 (ML), Nd” value was 21.90(7) and the “logβ111 (MHL), Nd” value was 25.56(7).
For the compound `O=C(O)CN(Cc1cc(-c2cn(CCOCCOCCO)nn2)cc(CN(CC(=O)O)Cc2cccc(C(=O)O)n2)n1)Cc1cccc(C(=O)O)n1` [H4pypa-peg, 6,6'-((((4-(1-(2-(2-(2-hydroxyethoxy)ethoxy)ethyl)-1H-1,2,3-triazol-4-yl)pyridine-2,6-diyl)bis–(methylene))bis–((carboxymethyl)azanediyl))bis–(methylene)) dipicolinic acid], the “logK111, Nd” value (spectrophotometrically determined in 2.0 M (Na+/H+)ClO4) was 1.89 (6). Under setting [1], the “logβ101 (ML), Nd” value is 18.15 (6) and the “logβ111 (MHL), Nd” value is 20.04 (4).
With `O=C(O)CN(CCN(CC(=O)O)Cc1cccc(C(=O)O)n1)Cc1cccc(C(=O)O)n1` [H4octapa, 6,6′-((ethane-1,2-diylbis–((carboxymethyl)azanediyl))bis–(methylene))dipicolinic acid], where the note is “spectrophotometrically determined in 2.0 M (Na+/H+)NO3”, the “logβ101 (ML), Nd” value is 18.15 (1).
With `O=C(O)CN(CCN(CC(=O)O)CC(=O)O)CCN(CC(=O)O)CC(=O)O` [H5dtpa, diethylenetriamine-N,N,N',N'',N''-pentaacetic acid], under setting [1], the “logβ101 (ML), Nd” value is reported as 20.23(2) and the “logβ111 (MHL), Nd” value was 21.59(2).
